Reference: US20110166132A1, “Gamma Secretase Modulators” (Amgen Inc., priority 2007, published 2011)

Target: T1, gamma secretase (Homo sapiens, UniProt P49768)
T1 construct: HEK293 cells stably expressing full length Amyloid Precursor Protein (APP); endogenous in cells; host or cells: HEK 293 cells stably expressing full length APP
Experiment: GSM cell-based assay: Aβ 42 inhibition or reduction in HEK 293 cells over-expressing APP (sandwich ELISA)
Details: approximate IC50; HEK293 cells stably expressing full length APP, 24 hours incubation, 10-point dose response starting at 10 μM
Excerpt: GSM cell-based assays were designed to measure the modulation of Aβ 42 from HEK 293 cells over-expressing APP.
Three simultaneous cell-based assays, namely Aβ 42 inhibition or reduction, Aβ 40 inhibition or reduction and a measurement of cell viability of the cells from which the Aβ 42/40 readout was obtained, together gave an interpretation of gamma secretase modulation (GSM). The assays measure Aβ 42 and Ab 40 from conditioned medium of test compound treated HEK 293 cells.
HEK293 cells stably expressing full length Amyloid Precursor Protein (APP) were plated at a density of 100K cells/well in 96 well plates (Costar). The cells were cultivated for 6 hours at 37° C. and 5% CO2 in DMEM supplemented with 10% FBS. The test compounds were then added to cells in 10-point dose response concentrations with the starting concentration being 10 μM. The compounds were diluted from stock solutions in DMSO and the final DMSO concentration of the test compounds on cells was 0.1%. After 24 hours of incubation with the test compounds the supernatant conditioned media was collected and the Aβ 42, Aβ 40 levels were determined using a sandwich ELISA. A cell viability test (CellTiter-Blue Cell Viability assay, Promega) on the cells from which the conditioned medium was harvested for Aβ 42 or Aβ 40 readouts gave an indication of cell survivability as a possible reason for false positive Aβ 42 or 40 reduction or inhibition readout. The IC50 of the compound (for either Aβ 42 or Aβ 40) was calculated from the percent of control or percent inhibition of Aβ 42 or Aβ 40 as a function of the concentration of the test compound.
The sandwich ELISA to detect Aβ 42 or Aβ 40 was performed in 96 well microtiter plates, which were pre-treated with goat anti-rabbit IgG (Pierce). The capture and detecting antibody pair that were used to detect Aβ 42 and Aβ 40 from cell supernatants were rabbit monoclonal Antibody 42 (RabMAb 42) and affinity purified polyclonal Antibody 40 pAB40 (Biosource) as capture antibodies and biotinylated 6E10 (Signet Labs Inc.) as detection antibody. The optimal concentration for RabMAb 42 was 1 μg/ml in Superblock/TBS (Pierce) that was supplemented with 0.05% Tween 20 (Sigma). The optimal concentration for the pAb40 antibody was 3 μg/ml in Superblock/TBS (Pierce) that was supplemented with 0.05% Tween 20 (Sigma). Optimal concentration for the detection antibody 6E10-biotinylated was 0.5 μg/ml in Superblock/TBS (Pierce) that had been supplemented with 2% normal goat serum and 2% normal mouse serum.
Cellular supernatants were incubated with the capture antibody for 16-20 hours at 4° C., followed by 3 wash steps in TBS-tween (0.05%). The detecting antibody incubation was for 3 hours at 4° C., again followed by the wash steps as described previously. The final readout of the ELISA is Time-Resolved Fluorescence (counts per minute) using Delfia reagents Streptavidin-Europium and Enhancement solutions (Perkin Elmer) and the EnVision Multilabel plate reader (Perkin Elmer).

| Structure (SMILES) | IC50 |
| --- | --- |
| Cc1cc(-c2ccc(NC(=O)[C@H](C)c3cc(C(F)(F)F)cc(C(F)(F)F)c3)cc2)ccn1 [Cpd 1, (2R)-2-(3,5-bis(trifluoromethyl)phenyl)-N-(4-(2-methyl-4-pyridinyl)phenyl)-propanamide] | 0.256 µM |
| Cc1cc(-c2ccc(NC(=O)Cc3cccc(Cl)c3)cc2)ccn1 [Cpd 8, 2-(3-chlorophenyl)-N-(4-(2-methyl-4-pyridinyl)phenyl)acetamide] | 0.79 µM |
| COc1ccc(Cl)cc1C(=O)Nc1ccc(-c2ccnc(C)c2)cc1 [Cpd 10] | 1.38 µM |
| Cc1cc(-c2ccc(NC(=O)Cc3cccc4ccccc34)cc2)ccn1 [Cpd 15, N-(4-(2-methyl-4-pyridinyl)phenyl)-2-(1-naphthalenyl)acetamide] | 0.883 µM |
| Cc1cc(-c2ccc(NC(=O)Cc3ccc4c(c3)OCO4)cc2)ccn1 [Cpd 16, 2-(1,3-benzodioxol-5-yl)-N-(4-(2-methyl-4-pyridinyl)phenyl)acetamide] | 0.473 µM |
| Cc1cc(-c2ccc(NC(=O)Cc3ccc(-c4ccccc4)cc3)cc2)ccn1 [Cpd 19, 2-(4-biphenylyl)-N-(4-(2-methyl-4-pyridinyl)phenyl)acetamide] | 0.557 µM |
| Cc1cc(-c2ccc(NC(=O)c3cn4c(C)cccc4n3)cc2)ccn1 [Cpd 20] | 2.61 µM |
| Cc1cc(-c2ccc(NC(=O)[C@@H](C)c3ccccc3)cc2)ccn1 [Cpd 21, (2S)-N-(4-(2-methyl-4-pyridinyl)phenyl)-2-phenylpropanamide] | 1.7 µM |
| Cc1cc(-c2ccc(NC(=O)c3cc(C4CC4)on3)cc2)ccn1 [Cpd 22] | 1.58 µM |
| Cc1cc(-c2ccc(NC(=O)C(C)c3cccc(Cl)n3)cc2)ccn1 (centres unmarked) [Cpd 24, 2-(6-chloro-2-pyridinyl)-N-(4-(2-methyl-4-pyridinyl)phenyl)propanamide] | 1.97 µM |
| Cc1cc(-c2ccc(NC(=O)Cc3cncc(Br)c3)cc2)ccn1 [Cpd 27, 2-(5-bromo-3-pyridinyl)-N-(4-(2-methyl-4-pyridinyl)phenyl)acetamide] | 2.45 µM |
| Cc1cc(-c2ccc(NC(=O)c3cccc(Oc4ccccc4)c3)cc2)ccn1 [Cpd 31] | 0.854 µM |
| COc1cccc(C(=O)Nc2ccc(-c3ccnc(C)c3)cc2)c1 [Cpd 34] | 2.93 µM |
| COC1CCCC(C(=O)Nc2ccc(-c3ccnc(C)c3)cc2)C1 (centres unmarked) [Cpd 35] | 4.28 µM |
| COc1ccc(C(=O)Nc2ccc(-c3ccnc(C)c3)cc2)cc1Cl [Cpd 37] | 0.567 µM |
| Cc1cc(-c2ccc(NC(=O)Cc3ccc(C)s3)cc2)ccn1 [Cpd 38, N-(4-(2-methyl-4-pyridinyl)phenyl)-2-(5-methyl-2-thiophenyl)acetamid] | 2.37 µM |
| Cc1cc(-c2ccc(NC(=O)C(c3ccccc3)C(C)C)cc2)ccn1 (centres unmarked) [Cpd 39, 3-methyl-N-(4-(2-methyl-4-pyridinyl)-phenyl)-2-phenylbutanamide] | 0.474 µM |
| Cc1cc(-c2ccc(NC(=O)c3cccc(N(C)C)c3)cc2)ccn1 [Cpd 46] | > 10 µM |
| Cc1cc(-c2ccc(NC(=O)C(C)(C)c3ccc(Cl)cc3)cc2)ccn1 [Cpd 48, 2-(4-chlorophenyl)-2-methyl-N-(4-(2-methyl-4-pyridinyl)phenyl)propanamide] | > 10 µM |
| Cc1cc(-c2ccc(NC(=O)c3cc(Cl)nc(Cl)c3)cc2)ccn1 [Cpd 51] | > 10 µM |
| Cc1cc(-c2ccc(NC(=O)C3CCCO3)cc2)ccn1 (centres unmarked) [Cpd 52] | > 10 µM |
| Cc1cc(-c2ccc(NC(=O)C3CC(=O)N(c4ccccc4)C3)cc2)ccn1 (centres unmarked) [Cpd 53] | > 10 µM |
| Cc1cc(-c2ccc(NC(=O)C3CC3)cc2)ccn1 [Cpd 54] | > 10 µM |
| CC(=O)N1CCC(C(=O)Nc2ccc(-c3ccnc(C)c3)cc2)CC1 [Cpd 55] | > 10 µM |

| Structure (SMILES) | IC50 |
| --- | --- |
| Cc1cc(-c2ccc(NC(=O)C3CC(=O)N(C4CCCCC4)C3)cc2)ccn1 (centres unmarked) [Cpd 60] | > 10 µM |
| Cc1cc(-c2ccc(NC(=O)C(C)c3ccc4c(c3)[nH]c3ccc(Cl)cc34)cc2)ccn1 (centres unmarked) [Cpd 65, 2-(6-chloro-9H-carbazol-2-yl)-N-(4-(2-methyl-4-pyridinyl)phenyl)propanamide] | 0.108 µM |
| COc1ccc2cc([C@@H](C)C(=O)Nc3ccc(-c4ccnc(C)c4)cc3)ccc2c1 [Cpd 66, (2R)-2-(6-methoxy-2-naphthalenyl)-N-(4-(2-methyl-4-pyridinyl)phenyl)propanamide] | 0.205 µM |
| Cc1cc(-c2ccc(NC(=O)Cc3n[nH]c4ccc(Br)cc34)cc2)ccn1 [Cpd 79, 2-(5-bromo-1H-indazol-3-yl)-N-(4-(2-methyl-4-pyridinyl)phenyl)acetamide] | 1.18 µM |
| Cc1cc(-c2ccc(NC(=O)c3cc(Cl)cc(Cl)c3)c(F)c2)ccn1 [Cpd 86] | > 10 µM |
| Cc1cc(-c2ccc(NC(=O)Cc3cc(C(F)(F)F)cc(C(F)(F)F)c3)cc2)ccn1 [Cpd 87, 2-(3,5-bis(trifluoromethyl)phenyl)-N-(4-(2-methyl-4-pyridinyl)phenyl)acetamide] | 0.461 µM |
| Cc1cc(-c2ccc(NC(=O)Cc3ccccn3)cc2)ccn1 [Cpd 88, N-(4-(2-methyl-4-pyridinyl)phenyl)-2-(2-pyridinyl)acetamide] | > 10 µM |
| Cc1cc(-c2ccc(NC(=O)Cc3c(C)noc3C)cc2)ccn1 [Cpd 89, 2-(3,5-dimethyl-4-isoxazolyl)-N-(4-(2-methyl-4-pyridinyl)phenyl)acetamide] | > 10 µM |
| Cc1cc(-c2ccc(NC(=O)c3ccccc3-c3ccccc3)cc2)ccn1 [Cpd 91] | > 10 µM |
| Cc1cccc([C@H](CC(C)C)C(=O)Nc2ccc(-c3ccnc(C)c3)cc2)c1 [Cpd 105, (2S)-4-methyl-2-(3-methylphenyl)-N-(4-(2-methyl-4-pyridinyl)phenyl)pentanamide] | 1.73 µM |
| Cc1cc(-c2ccc(NC(=O)Cc3c(F)cccc3Cl)cc2)ccn1 [Cpd 106, 2-(2-chloro-6-fluorophenyl)-N-(4-(2-methyl-4-pyridinyl)phenyl)acetamide] | > 10 µM |
| Cc1cc(-c2ccc(NC(=O)Cc3ccc(OC(F)(F)F)cc3)cc2)ccn1 [Cpd 110, N-(4-(2-methyl-4-pyridinyl)phenyl)-2-(4-(trifluoromethoxy)phenyl)acetamide] | 3.27 µM |
| Cc1cc(-c2ccc(NC(=O)Cc3ccc(OCc4ccccc4)cc3)cc2)ccn1 [Cpd 111, 2-(4-(benzyloxy)phenyl)-N-(4-(2-methyl-4-pyridinyl)phenyl)acetamide] | 3.3 µM |
| Cc1cc(-c2ccc(NC(=O)Cc3ccc(Oc4ccccc4)cc3)cc2)ccn1 [Cpd 112] | 5.78 µM |
| Cc1cc(-c2ccc(NC(=O)Cc3ccccc3OCc3ccccc3)cc2)ccn1 [Cpd 113, 2-(2-(benzyloxy)phenyl)-N-(4-(2-methyl-4-pyridinyl)phenyl)acetamide] | > 10 µM |
| Cc1cc(-c2ccc(NC(=O)Cc3ccc4c(c3)CCO4)cc2)ccn1 [Cpd 116, 2-(2,3-dihydro-1-benzofuran-5-yl)-N-(4-(2-methyl-4-pyridinyl)phenyl)acetamide] | 4.14 µM |
| Cc1cc(-c2ccc(NC(=O)C3CCc4ccccc43)cc2)ccn1 (centres unmarked) [Cpd 117] | 3.86 µM |
| Cc1cc(-c2ccc(NC(=O)C3CC(=O)c4ccccc43)cc2)ccn1 (centres unmarked) [Cpd 120] | > 3.33 µM |
| Cc1cc(-c2ccc(NC(=O)[C@H](C)c3ccc4c(c3)[nH]c3ccc(Cl)cc34)cc2)ccn1 [Cpd 122, (2R)-2-(6-chloro-9H-carbazol-2-yl)-N-(4-(2-methyl-4-pyridinyl)phenyl)propanamide] | 0.328 µM |
| Cc1cc(-c2ccc(NC(=O)C(CC3CCC3)c3cccc(Br)c3)cc2)ccn1 (centres unmarked) [Cpd 124, 2-(3-bromophenyl)-3-cyclobutyl-N-(4-(2-methyl-4-pyridinyl)phenyl)propanamide] | 0.282 µM |
| Cc1cc(-c2ccc(NC(=O)Cc3ccc4oc(-c5ccccc5)nc4c3)cc2)ccn1 [Cpd 125, N-(4-(2-methyl-4-pyridinyl)phenyl)-2-(2-phenyl-1,3-benzoxazol-5-yl)acetamide] | 0.272 µM |
| Cc1cc(-c2ccc(NC(=O)[C@@H](CC(C)C)c3cccc(-c4ccc(N5CCOCC5)cc4)c3)cc2)ccn1 [Cpd 127, (2S)-4-methyl-N-(4-(2-methyl-4-pyridinyl)phenyl)-2-(4′-(4-morpholinyl)-3-biphenylyl)pentanamide] | 0.129 µM |
| Cc1cc(-c2ccc(NC(=O)C(CCF)c3cccc(Br)c3)cc2)ccn1 (centres unmarked) [Cpd 129, 2-(3-bromophenyl)-4-fluoro-N-(4-(2-methyl-4-pyridinyl)phenyl)butanamide] | > 10 µM |
